# Measured values as given in PMC8333425, “Discovery of a dual Ras and ARF6 inhibitor from a GPCR endocytosis screen” (Nature Communications, 2021).
# Where “and” joins values, the source holds several entries; their conditions need not be identical. Identical values can stand only once.
# Biological target: T1, ARF (Homo sapiens, UniProt P62330)
# T1 construct: endogenous in cells; host or cells: HEK293SL
# Test: ARF BRET sensor (GGA3-PBD-RlucII / rGFP-CAAX), AT1R-mediated
# Assay type: cell-based
# Settings: for AngII-promoted BRET, AT1R-mediated ARF activation: individual experiments
# Experimental: HEK293 cells were transfected with a BRET sensor that monitors the interaction between β-arrestins and the β-appendage of AP-2 (Fig. 2a)[26],[33]. […] The small GTPase ARF6, which binds β-arrestins and facilitates AP-2 and clathrin recruitment at the PM, is also necessary for CCPs initiation and receptor internalization. Therefore, ARF6 activity was assessed using the protein-3 binding domain (PBD) of the golgi-associated, gamma adaptin ear-containing, ARF-binding protein 3 (GGA3) fused to GST (GST-GGA3-PBD) in a pull-down assay, which allows the detection of GTP-bound ARF6 in cells[34] (Fig. 2b). […] This inhibition was selective for ARF6 since 21 had no effect on AT1R-dependent ARF1 activation (Supplementary Fig. 2a). We also devised a BRET assay to quantitatively assess 21’s action on ARF activity. The ARF BRET assay was created using the GGA3-PBD fused to RlucII (GGA3-PBD-RlucII) and the rGFP anchored at the PM (rGFP-CAAX) (Supplementary Fig. 3a). […] 21 blocked ARF’s activation by 40–60% following AT1R stimulation (Fig. 2c).
# HEK293SL cells were seeded at a density of 7.5 × 10^5 cells per 100-mm dish and 24 h later, transiently transfected as such. For receptor internalization experiments, cells were transfected with 0.12 μg AT1R-RlucII, B2R-RlucII, or β2AR-RlucII and 0.48 μg of either rGFP-CAAX (to assess removal from the PM) or rGFP-FYVE (to assess accumulation in the endosomes). For β-arrestin recruitment assays, cells were transfected with 0.48 μg of receptor-YFP along with 0.12 μg of β-arrestin-RlucII. For β-arrestin/AP-2 binding experiments, cells were transfected with 1 μg Flag-AT1R, 1 μg β2-Adaptin-YFP, and 0.12 μg β-arrestin2-RlucII. For G protein activation, cells were transfected with 3 μg of sp-Flag-AT1R along with either 4.5 μg of the Gαq-polycistronic BRET sensor or 0.24 μg of the Gαi3-RlucII and 0.6 μg of GFP10-Gγ2 and Gβ1 sensors or 0.12 μg PKN-RBD-RlucII and 0.48 μg of rGFP-CAAX. For PKC activation, cells were transfected with 3 μg of sp-Flag-AT1R and 0.18 μg of the PKC sensor. For GTPase activation experiments, cells were transfected with 1 μg Flag-AT1R, 0.48 μg of rGFP-CAAX, and either 0.12 μg of GGA3-PBD-RlucII, PAK-CRIB-RlucII or Raf-RBD-RlucII. For biosensor validation experiments, cells were additionally transfected with 500 ng Flag-K-Ras-WT, Flag-K-Ras-G12V, Flag-K-Ras-SOS-CAAX, HA-ARF6-WT, HA-ARF6-T27N, Myc-Rac1-WT, Myc-Rac1-Q61L or Myc-Rac1-T17N. For PI3K/Akt activation experiments, cells were transfected with 0.48 μg of rGFP-CAAX and 0.12 μg of Akt (PH)-RlucII. After 18 h of transfection, the media was replaced and cells were divided for subsequent experiments. Cells were detached and seeded onto poly-L-ornithine-coated 96-well flat white bottom plates (BrandTech Scientific) at a density of 2.5 × 10^4 cells per well in media. The next day, cells were washed once with Tyrode’s buffer (140 mM NaCl, 2.7 mM KCl, 1 mM CaCl2, 12 mM NaHCO3, 5.6 mM D-glucose, 0.5 mM MgCl2, 0.37 mM NaH2PO4, 25 mM HEPES, pH 7.4) and left in Tyrode’s buffer. For kinetics of β-arrestin recruitment or β-arrestin binding to receptor and AP-2 experiments, cells were serum starved for 30 min, pretreated with 21 (50 µM) or Barbadin (100 µM) for 30 min, stimulated with 100 nM AngII or 1 µM BK and BRET signals were monitored at indicated times using a Victor X Light plate reader (PerkinElmer). Coelenterazine H (final concentration of 5 µM) was added 3–5 min prior to BRET measurements. Filter set was 460/80 nm and 535/30 nm for detecting the RlucII Renilla luciferase (donor) and YFP (acceptor) light emissions, respectively. The BRET ratio was determined by calculating the ratio of the light emitted by YFP over the light emitted by the RlucII. For G protein activation, cells were serum starved, pretreated with compounds for 30 min, stimulated with 100 nM AngII for 2 min (Gαq, Gαi3, and Rho sensors) or 5 min (PKC sensor). […]
# T1 sequence (P62330 2-175): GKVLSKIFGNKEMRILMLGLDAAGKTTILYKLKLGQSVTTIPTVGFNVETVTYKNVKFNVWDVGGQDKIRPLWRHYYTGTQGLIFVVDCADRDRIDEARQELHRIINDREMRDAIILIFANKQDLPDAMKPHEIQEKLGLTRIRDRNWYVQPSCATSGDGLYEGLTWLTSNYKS
compound,measurement,setting,value
CC(C)C(=O)N1CCN(c2ccc(NC(=O)c3cc4ccccc4o3)cc2Cl)CC1 [Compound 21],block of ARF activation following AT1R stimulation (BRET),50 μM,40–60%
same,IC50,"AT1R, dose-response",7 µM
same,"AngII-promoted BRET, AT1R-mediated ARF activation","Comp 21 50 μM, time 0 min",0
same,"AngII-promoted BRET, AT1R-mediated ARF activation","Comp 21 50 μM, time 2 min",0.01817 and 0.0425 and 0.0675
same,"AngII-promoted BRET, AT1R-mediated ARF activation","Comp 21 50 μM, time 5 min",0.04183 and 0.1107 and 0.06017 and 0.076
same,"AngII-promoted BRET, AT1R-mediated ARF activation","Comp 21 50 μM, time 10 min",0.04033 and 0.11 and 0.06283 and 0.0785
same,"AngII-promoted BRET, AT1R-mediated ARF activation","Comp 21 (50 μM), time 1 min",0.04233 and 0.01117 and 0.065
same,Arf6 MEAN (Fig.4d),Log [Comp 21] (M) -4,20.8744
same,Arf6 MEAN (Fig.4d),Log [Comp21] (M) -4.3,30.1774
same,Arf6 MEAN (Fig.4d),Log [Comp21] (M) -5,40.2199
same,Arf6 MEAN (Fig.4d),Log [Comp21] (M) -5.3,84.9863
same,Arf6 MEAN (Fig.4d),Log [Comp 21] (M) -6,88.0739
same,Arf6 MEAN (Fig.4d),Log [Comp21] (M) -6.3,99.6353
same,Arf6 MEAN (Fig.4d),Log [Comp 21] (M) -7,93.4599
